As a reminder, the IC50 is the midpoint of a concentration-inhibition curve. Higher therefore signals weaker potency in that assay.

This test addresses LRRK2 G2019S enzyme (Homo sapiens (Human), UniProt Q5S007, G2019S). The test is described as follows: LRRK2 G2019S TR-FRET biochemical kinase assay (LRRKtide substrate). The note with it: Table D-4; 5 nM LRRK2, 134 μM ATP, 60 minute reaction, 23° C. The procedure, abridged: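 TR-FRET phospho-LRRKtide readout (2 nM antibody, 10 mM EDTA, 60 min) after a 60 min, 23 °C kinase reaction. The reaction used 134 μM ATP and 5 nM enzyme in pH 7.5 Tris/MgCl2/EGTA/DTT buffer, with compound and enzyme-substrate mix preincubated for 20 min beforehand.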
In general terms: In TR-FRET formats the signal depends on donor and acceptor labels being close together.

Sequence of LRRK2 G2019S enzyme (Q5S007 whole entry G2019S): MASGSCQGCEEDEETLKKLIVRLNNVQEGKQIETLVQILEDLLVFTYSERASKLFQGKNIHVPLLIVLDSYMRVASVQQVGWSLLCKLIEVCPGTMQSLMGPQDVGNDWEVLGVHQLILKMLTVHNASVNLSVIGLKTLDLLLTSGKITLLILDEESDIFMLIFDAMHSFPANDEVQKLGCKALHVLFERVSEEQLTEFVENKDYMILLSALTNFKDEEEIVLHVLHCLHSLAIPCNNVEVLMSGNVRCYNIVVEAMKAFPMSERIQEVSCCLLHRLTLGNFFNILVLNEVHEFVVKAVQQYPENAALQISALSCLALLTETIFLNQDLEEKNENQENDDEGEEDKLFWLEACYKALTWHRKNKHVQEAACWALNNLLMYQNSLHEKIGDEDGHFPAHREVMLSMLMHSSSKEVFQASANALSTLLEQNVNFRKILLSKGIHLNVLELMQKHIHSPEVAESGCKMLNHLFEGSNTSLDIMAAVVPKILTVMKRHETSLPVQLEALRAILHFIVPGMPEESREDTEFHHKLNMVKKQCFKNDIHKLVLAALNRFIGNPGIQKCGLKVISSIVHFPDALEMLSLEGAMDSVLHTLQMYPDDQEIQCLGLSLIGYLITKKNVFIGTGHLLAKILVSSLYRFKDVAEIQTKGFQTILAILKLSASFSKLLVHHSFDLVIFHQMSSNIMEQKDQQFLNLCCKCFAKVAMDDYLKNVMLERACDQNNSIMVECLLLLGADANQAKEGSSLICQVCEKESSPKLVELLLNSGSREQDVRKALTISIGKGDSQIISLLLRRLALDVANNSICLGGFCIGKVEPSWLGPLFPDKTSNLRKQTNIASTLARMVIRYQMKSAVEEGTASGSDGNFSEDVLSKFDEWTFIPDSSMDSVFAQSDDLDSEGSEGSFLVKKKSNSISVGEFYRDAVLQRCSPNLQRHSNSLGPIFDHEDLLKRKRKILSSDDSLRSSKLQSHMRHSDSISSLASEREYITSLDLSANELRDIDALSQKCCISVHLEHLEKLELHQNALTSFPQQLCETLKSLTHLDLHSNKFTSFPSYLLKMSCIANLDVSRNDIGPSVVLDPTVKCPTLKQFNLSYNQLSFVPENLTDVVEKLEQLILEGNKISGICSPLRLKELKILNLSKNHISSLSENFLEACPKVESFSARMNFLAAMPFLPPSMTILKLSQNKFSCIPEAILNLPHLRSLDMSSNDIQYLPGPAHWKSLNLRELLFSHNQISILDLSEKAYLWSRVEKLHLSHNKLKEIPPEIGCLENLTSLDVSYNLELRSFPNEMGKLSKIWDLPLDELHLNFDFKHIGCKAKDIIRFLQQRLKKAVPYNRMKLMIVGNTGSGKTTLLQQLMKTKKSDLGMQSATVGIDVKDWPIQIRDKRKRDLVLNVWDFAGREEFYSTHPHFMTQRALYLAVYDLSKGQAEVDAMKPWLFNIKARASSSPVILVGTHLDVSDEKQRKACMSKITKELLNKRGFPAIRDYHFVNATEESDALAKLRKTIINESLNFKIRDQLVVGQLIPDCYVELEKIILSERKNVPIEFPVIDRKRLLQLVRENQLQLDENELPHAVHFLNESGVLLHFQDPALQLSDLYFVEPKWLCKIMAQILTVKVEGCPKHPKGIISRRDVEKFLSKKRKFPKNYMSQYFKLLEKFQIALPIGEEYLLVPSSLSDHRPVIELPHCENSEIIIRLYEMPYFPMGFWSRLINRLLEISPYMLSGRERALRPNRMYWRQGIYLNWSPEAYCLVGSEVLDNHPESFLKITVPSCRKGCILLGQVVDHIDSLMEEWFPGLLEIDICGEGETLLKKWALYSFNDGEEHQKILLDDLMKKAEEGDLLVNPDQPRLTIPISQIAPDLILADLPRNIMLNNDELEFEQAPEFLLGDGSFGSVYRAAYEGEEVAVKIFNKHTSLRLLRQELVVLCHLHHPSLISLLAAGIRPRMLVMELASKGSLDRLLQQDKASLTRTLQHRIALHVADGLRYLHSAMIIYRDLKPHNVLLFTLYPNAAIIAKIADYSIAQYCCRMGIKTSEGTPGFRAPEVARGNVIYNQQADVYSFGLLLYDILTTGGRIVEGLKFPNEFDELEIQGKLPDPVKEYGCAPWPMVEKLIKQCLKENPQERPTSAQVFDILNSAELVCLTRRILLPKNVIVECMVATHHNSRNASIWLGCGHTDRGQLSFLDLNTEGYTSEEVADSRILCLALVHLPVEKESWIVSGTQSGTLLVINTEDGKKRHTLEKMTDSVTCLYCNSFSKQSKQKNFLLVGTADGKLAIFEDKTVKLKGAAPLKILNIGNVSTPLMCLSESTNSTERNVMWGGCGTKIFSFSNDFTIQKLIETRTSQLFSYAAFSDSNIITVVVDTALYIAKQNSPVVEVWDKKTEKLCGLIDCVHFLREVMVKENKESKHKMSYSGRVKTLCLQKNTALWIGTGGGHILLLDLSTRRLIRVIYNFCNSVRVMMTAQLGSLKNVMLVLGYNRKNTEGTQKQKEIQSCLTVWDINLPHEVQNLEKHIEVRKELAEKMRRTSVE

`CCNc1nc(Nc2cn(C(C)COC(F)F)nc2C)ncc1C(F)(F)F` [Compound D-80] gave an IC50 of under 30 nM.
In turn, `CCNc1nc(Nc2cnn([C@H]3C[C@@H](N4CCOCC4)C3)c2C)ncc1C(F)(F)F` [Compound D-81] yielded an IC50 of under 30 nM.
As for `CCNc1nc(Nc2cnn(C(C)COC(F)F)c2C)ncc1C(F)(F)F` [Compound D-82], the figure is under 30 nM; as for `CNc1nc(Nc2cn([C@H]3C[C@@H](c4nncs4)C3)nc2C)ncc1C(F)(F)F` [Compound D-83], under 30 nM.
`CCNc1nc(Nc2cnn([C@H]3C[C@H](c4cocn4)C3)c2C)ncc1C(F)(F)F` [Compound D-84] returned an IC50 of under 30 nM.
The value for `CCNc1nc(Nc2cnn([C@H]3C[C@H](n4nccn4)C3)c2C)ncc1Br` [Compound D-85] was under 30 nM; that for `Cc1c(Nc2ncc(C(F)(F)F)c(NCC(F)F)n2)cnn1[C@H]1C[C@H](n2cccn2)C1` [Compound D-87] was under 30 nM.
Turning to `CCNc1nc(Nc2cnn([C@H]3C[C@H](n4cc(F)cn4)C3)c2C)ncc1C(F)(F)F` [Compound D-88], the IC50 was under 30 nM.
Regarding `CCNc1nc(Nc2cnn([C@H]3C[C@H](c4nncs4)C3)c2C)ncc1C(F)(F)F` [Compound D-89], the IC50 was under 30 nM.
As for `CNc1nc(Nc2cnn(C3CCC(n4nccn4)C3)c2C)ncc1C(F)(F)F` [Compound D-90], the figure is under 30 nM; as for `CCNc1nc(Nc2cnn(C3CCc4c(C)noc43)c2C)ncc1C(F)(F)F` [Compound D-91], under 30 nM.
The value for `CCNc1nc(Nc2cn(C3CCCn4ccnc43)nc2C)ncc1C(F)(F)F` [Compound D-92] was 30 to 60 nM; that for `CCNc1nc(Nc2cnn([C@H]3C[C@@H](n4cccn4)C3)c2C)ncc1C(F)(F)F` [Compound D-93] was under 30 nM; that for `CNc1nc(Nc2cn([C@H]3C[C@H](n4cccn4)C3)nc2C)ncc1C(F)(F)F` [Compound D-94] was under 30 nM.
The value for `CNc1nc(Nc2cn(C3CCCc4c3cnn4C)nc2C)ncc1C(F)(F)F` [Compound D-95] was over 60 nM.
`CCNc1nc(Nc2cnn(C3CCc4ncsc43)c2C)ncc1C(F)(F)F` [Compound D-97] returned an IC50 of under 30 nM.
As for `CCNc1nc(Nc2cnn([C@H]3C[C@H](n4cccn4)C3)c2C)ncc1C(F)(F)F` [Compound D-98], the figure is under 30 nM; as for `CNc1nc(Nc2cn(C3CCn4c(Cl)cnc43)nc2C)ncc1C(F)(F)F` [Compound D-99], under 30 nM.
As for `CCNc1nc(Nc2cn(C(F)(F)C(=O)NC)nc2C)ncc1C(F)(F)F` [Compound D-100], the figure is under 30 nM.
The value for `CCNc1nc(Nc2cn(C(F)(F)C(N)=O)nc2C)ncc1C(F)(F)F` [Compound D-101] was under 30 nM.
Consider `CCNc1nc(Nc2cnn([C@H]3C[C@H](N4CCCC4=O)C3)c2C)ncc1C(F)(F)F` [Compound D-103], for which the IC50 is under 30 nM.
For the molecule `CCNc1nc(Nc2cnn(C3CCn4ccnc43)c2Cl)ncc1C(F)(F)F` [Compound D-104], the IC50 was under 30 nM.
As for `Cc1c(Nc2ncc(C(F)(F)F)c(NC3CC3)n2)cnn1[C@H]1C[C@H](n2cccn2)C1` [Compound D-106], the figure is under 30 nM.
In turn, `CNc1nc(Nc2cnn([C@H]3C[C@H](n4cnc(C)n4)C3)c2C)ncc1C(F)(F)F` [Compound D-108] showed an IC50 of under 30 nM.
Regarding `CNc1nc(Nc2cnn([C@H]3C[C@H](n4ncnc4C)C3)c2C)ncc1C(F)(F)F` [Compound D-109], the IC50 is under 30 nM.
`CCNc1nc(Nc2cnn(C3CCn4cncc43)c2C)ncc1C(F)(F)F` [Compound D-110] gave an IC50 of under 30 nM.
Molecule `CNc1nc(Nc2cnn([C@H]3C[C@H](n4cccn4)C3)c2C)ncc1Br` [Compound D-111] showed a half-maximal inhibitory concentration (IC50) of under 30 nM.
On to `CNc1nc(Nc2cnn(C3CCC(n4ccnn4)C3)c2C)ncc1C(F)(F)F` [Compound D-112], for which the IC50 was under 30 nM.
The value for `CCNc1nc(Nc2cn([C@H]3C[C@@H](c4cocn4)C3)nc2C)ncc1C(F)(F)F` [Compound D-113] was under 30 nM; that for `CNc1nc(Nc2cnn(C3CCC(n4nccn4)C3)c2C)ncc1C(F)(F)F` [Compound D-114] was under 30 nM.
The value for `CNc1nc(Nc2cn(C3(c4ncn(C)n4)CC3)nc2C)ncc1C(F)(F)F` [Compound D-115] was over 60 nM.
The molecule `CCNc1nc(Nc2cnn([C@H]3C[C@H](OC(F)F)C3)c2C)ncc1C(F)(F)F` [Compound D-116] came in with an IC50 of under 30 nM.
As for `CCNc1nc(Nc2cnn([C@H]3C[C@H](n4cncn4)C3)c2C)ncc1C(F)(F)F` [Compound D-117], the figure is under 30 nM; as for `CCNc1nc(Nc2cnn([C@H]3C[C@@H](n4ncnc4C(F)(F)F)C3)c2C)ncc1C(F)(F)F` [Compound D-118], under 30 nM; as for `Cc1c(Nc2ncc(C(F)(F)F)c(NC3CC3)n2)cnn1[C@H]1C[C@H](n2nccn2)C1` [Compound D-119], under 30 nM.
As for `CCOc1nc(Nc2cn(C(F)(F)C(N)=O)nc2C)ncc1C(F)(F)F` [Compound D-120], the IC50 is under 30 nM.
The value for `CCNc1nc(Nc2cnn([C@H]3C[C@@H](n4ccnn4)C3)c2C)ncc1C(F)(F)F` [Compound D-123] was under 30 nM.
In turn, `CNc1nc(Nc2cnn(C3CCC(n4ccnn4)C3)c2C)ncc1C(F)(F)F` [Compound D-124] registered an IC50 of under 30 nM.
The value for `CNc1nc(Nc2cn(C3CCC(n4ccnn4)C3)nc2C)ncc1C(F)(F)F` [Compound D-125] was 30 to 60 nM.
The value for `CCNc1nc(Nc2cnn(C3CCc4cn[nH]c43)c2C)ncc1C(F)(F)F` [Compound D-126] was over 60 nM; that for `COc1nc(Nc2cn(C3CCn4ccnc43)nc2C)ncc1C(F)(F)F` [Compound D-127] was under 30 nM.
As for `CNc1nc(Nc2cnn([C@H]3C[C@H](n4nccn4)C3)c2C)ncc1Br` [Compound D-128], the figure is under 30 nM.
Turning to `COc1nc(Nc2cnn([C@H]3C[C@H](n4nccn4)C3)c2C)ncc1Br` [Compound D-129], the IC50 was under 30 nM.
Molecule `CCNc1nc(Nc2cn(C3CCc4nc[nH]c43)nc2C)ncc1C(F)(F)F` [Compound D-131] had an IC50 of under 30 nM.
With `CCNc1nc(Nc2cnn([C@H]3C[C@H](n4cnc(C(F)(F)F)n4)C3)c2C)ncc1C(F)(F)F` [Compound D-135], the IC50 is under 30 nM.
Take `CNc1nc(Nc2cn(C3(c4ncn(C)n4)CCC3)nc2C)ncc1C(F)(F)F` [Compound D-136]: the IC50 is under 30 nM.
Regarding `CNc1nc(Nc2cn(C3CCn4ccnc43)nc2C)ncc1C(F)(F)F` [Compound D-137], the half-maximal inhibitory concentration (IC50) was under 30 nM.
The molecule `CCNc1nc(Nc2cn([C@H]3C[C@H](OC(F)F)C3)nc2C)ncc1C(F)(F)F` [Compound D-138] came in with an IC50 of under 30 nM.
The value for `CCNc1nc(Nc2cnn([C@H]3C[C@@H](N4CCCC4=O)C3)c2C)ncc1C(F)(F)F` [Compound D-139] was under 30 nM.
On to `CCNc1nc(Nc2cn(C(F)(F)C(=O)NC3CC3)nc2C)ncc1C(F)(F)F` [Compound D-140], for which the IC50 was under 30 nM.
The value for `CNc1nc(Nc2cnn(C3(CC#N)CC3)c2C)ncc1C(F)(F)F` [Compound D-144] was under 30 nM; that for `CCNc1nc(Nc2cnn(C3CCn4nccc43)c2C)ncc1C(F)(F)F` [Compound D-145] was under 30 nM; that for `CCNc1nc(Nc2cn(C3CCn4nccc43)nc2C)ncc1C(F)(F)F` [Compound D-146] was under 30 nM.
As for `CCNc1nc(Nc2cnn([C@H]3C[C@@H](S(C)(=O)=O)C3)c2C)ncc1C(F)(F)F` [Compound D-147], the figure is under 30 nM.
As for `CCNc1nc(Nc2cnn([C@H]3C[C@@H](n4nccn4)C3)c2C)ncc1C(F)(F)F` [Compound D-148], the figure is under 30 nM.
Molecule `CNc1nc(Nc2cnn(C3CCn4cncc43)c2C)ncc1C(F)(F)F` [Compound D-150] yielded an IC50 of under 30 nM.
The value for `CCNc1nc(Nc2cnn([C@H]3C[C@H](N4CCOCC4)C3)c2C)ncc1C(F)(F)F` [Compound D-153] was under 30 nM.
`CCNc1nc(Nc2cnn([C@H]3C[C@H](n4nccn4)C3)c2C)ncc1Cl` [Compound D-154] displayed an IC50 of under 30 nM.
Consider `CCNc1nc(Nc2cnn(C3(CC#N)CC3)c2C)ncc1C(F)(F)F` [Compound D-155], for which the IC50 was under 30 nM.
`CNc1nc(Nc2cnn(C3(COC(F)F)CC3)c2C)ncc1C(F)(F)F` [Compound D-157]: the IC50 is under 30 nM.
The value for `CNc1nc(Nc2cnn(CC3(CC#N)CC3)c2C)ncc1C(F)(F)F` [Compound D-157a] was under 30 nM; that for `CCNc1nc(Nc2cnn(CC3(CC#N)CC3)c2C)ncc1C(F)(F)F` [Compound D-158] was under 30 nM; that for `CNC(=O)C(F)(F)n1cc(Nc2ncc(C(F)(F)F)c(NC)n2)c(C)n1` [Compound D-159] was under 30 nM.
`CCNC(=O)C(F)(F)n1cc(Nc2ncc(C(F)(F)F)c(NC)n2)c(C)n1` [Compound D-160] had an IC50 of under 30 nM.
As for `CCNc1nc(Nc2cn(C(F)(F)C(=O)O)nc2C)ncc1C(F)(F)F` [Compound D-161], the figure is under 30 nM; as for `CNc1nc(Nc2cnn([C@H]3C[C@H](n4nccn4)C3)c2C)ncc1C(F)(F)F` [Compound D-162], under 30 nM; as for `CCNc1nc(Nc2cn(C(F)(F)C(N)=O)nc2Cl)ncc1C(F)(F)F` [Compound D-164], under 30 nM.
As for `CNc1nc(Nc2cnn([C@H]3C[C@@H](n4cc(F)cn4)C3)c2C)ncc1C(F)(F)F` [Compound D-165], the figure is under 30 nM; as for `CNc1nc(Nc2cn([C@H]3C[C@H](c4nncs4)C3)nc2C)ncc1C(F)(F)F` [Compound D-167], under 30 nM; as for `CNc1nc(Nc2cnn([C@H]3C[C@H](c4nncs4)C3)c2C)ncc1C(F)(F)F` [Compound D-168], under 30 nM.
As for `CNc1nc(Nc2cnn(C3CCCn4ccnc43)c2C)ncc1C(F)(F)F` [Compound D-169], the figure is over 60 nM.
